From PMC10846744, “Cathelicidin peptide analogues inhibit EV71 infection through blocking viral entry and uncoating” (PLOS Pathogens, 2024)
Where no end group is shown, it is not given here.

How the values were obtained:
Echovirus 7 (Echo7) = assay: Echo7 infection inhibition on RD cells (cell viability); format: cell-based; details: for inhibition of Echo7 infection: 0.3, 0.9, or 1.5 μM peptide pre-incubated with virus, RD cell viability 24 h.p.i (S1G Fig); for inhibition of Echo7 infection, higher concentrations: 3, 6, or 12 μM peptide pre-incubated with virus, RD cell viability 24 h.p.i (S1I Fig)
Experimental: Synthetic peptides were purchased from Bioyears Co. Ltd. (Wuhan, China) with purity of more than 95% and dissolved in PBS. To test their inhibitory effects, the EV71 virus (MOI = 1) was incubated with the indicated amount of peptide at room temperature for 1 hr before the mixture was added to RD cells and maintained throughout the experiment. Cell viability, viral titer, or viral protein expression was determined 24 h.p.i. For the time-of-addition experiment, viruses were either pre-incubated with peptides (for the -2 and -1 time points), the mixture was added to the cells simultaneously (for 0 time point), or peptides were added after virus infection (for 1, 2, 4 and 7 h time points) and the virus/peptide was maintained in the culture before cell viability, viral titer, or viral protein expression was determined 24 h.p.i. The TCID50 of the virus was calculated according to the Reed-Muench method.
Cell viability assays were carried out using the Cell Titer-Glo Luminescent Cell Viability Assay Kit (Promega, Madison, WI) following the manufacturer’s instructions. Luminescence signals were measured using a BioTek Neo2 microplate reader.
(A-D) Cell viability of RD cells treated with the indicated amount of DL-37 (A), LL-37 (B), LL-18 (C), or FF-18 (D) was plotted against peptide concentration, and the cytotoxicity was determined. (E) EV71 virus pre-incubated with indicated amounts of DL-37, and the cell viability was determined 24 h.p.i. ***, P<0.001. (F-G) CVB5 (F) or Echo7 (G) virus pre-incubated with 0.3, 0.9, or 1.5 μM of peptides were used to infect RD cells. Cell viability was determined 24 h.p.i. ***, P<0.001. (H-I) CVB5 (H) or Echo7 (I) virus pre-incubated with 3, 6, or 12 μM of peptides were used to infect RD cells. Cell viability was determined 24 h.p.i. ***, P<0.001. (TIF) Click here for additional data file.

EV71 virus [1] = assay: Pre-incubation of RD cells with peptide, wash-out, then EV71 infection; format: cell-based, enterovirus 71 (EV71); details: RD cells incubated with peptide 2 hrs, EV71 MOI = 1, cell viability 24 h.p.i (S3A Fig)
Experimental: Supplementary file ppat.1011967.s003.tif: S3 Fig LL-18 binds directly to virus particles. (A) RD cells were pre-incubated with indicated amounts of LL-18, FF-18, DL-37, or LL-37 for 2 hrs before they were washed extensively to remove unbound peptides. Cells were then infected with the EV71 virus (MOI = 1) and cell viability was determined 24 h.p.i. Values were normalized to uninfected RD cells. ***, P<0.001. (B). ^1H NMR spectra of FF-18 peptide in the absence or presence of EV71 virus (green line) or CVB5 virus (red line). (TIF) Click here for additional data file.

EV71 virus [2] = assay: Virus attachment assay (q-RT-PCR, immunoblotting); format: cell-based, enterovirus 71 (EV71); details: 1.5 μM peptide (q-RT-PCR, MOI = 1) or 3 μM (immunoblotting, MOI = 10); RD cells 4°C 1 hr
Experimental: Fig 3 LL-18 and FF-18 inhibit viral attachment and internalization. (A) EV71 virus (MOI = 1) was pre-incubated with 1.5 μM LL-18, FF-18 or 12 μM 12s before they were used to incubate with RD cells at 4°C for 1 hr. Viral RNA was then determined with q-RT-PCR. Values are normalized to vehicle treated cells. ***, P<0.001. (B) EV71 virus (MOI = 1) was pre-incubated with 1.5 μM LL-18, FF-18 or 12 μM 12s before they were used to incubate with RD cells at 4°C for 1 hr followed by 37°C incubation for 1 hr. Viral RNA was then determined with q-RT-PCR. Values are normalized to vehicle treated cells. ***, P<0.001. (C) Diagram of EV71 subgenomic replicon. […] (D) RD cells transfected with EV71 SGR RNA were treated with 1.5 μM LL-18 or FF-18 for 3 hrs (left panel) or 6 hrs (right panel) before luciferase activity was measured. ns, not significant.
Viral binding and internalization assays were performed as previously described. […] Cells were then washed extensively with ice-cold PBS, and the viruses retained were analyzed with real-time PCR. […]
Supplementary file ppat.1011967.s002.tif: S2 Fig LL-18 and FF-18 inhibit viral attachment and internalization. […] Cells were then washed extensively and kept cultured for 24 hrs before viral VP1 expression was determined with immunoblotting. […] Cells were then washed extensively and kept cultured for 24 hrs before viral VP1 expression was determined with immunoblotting. […]

EV71 subgenomic replicon = EV71 subgenomic replicon (SGR) Renilla luciferase assay; format: cell-based, enterovirus 71 (EV71); details: RD cells transfected with SGR RNA, 1.5 μM peptide for 3 or 6 hrs
Experimental: Fig 3 LL-18 and FF-18 inhibit viral attachment and internalization. (A) EV71 virus (MOI = 1) was pre-incubated with 1.5 μM LL-18, FF-18 or 12 μM 12s before they were used to incubate with RD cells at 4°C for 1 hr. Viral RNA was then determined with q-RT-PCR. Values are normalized to vehicle treated cells. ***, P<0.001. (B) EV71 virus (MOI = 1) was pre-incubated with 1.5 μM LL-18, FF-18 or 12 μM 12s before they were used to incubate with RD cells at 4°C for 1 hr followed by 37°C incubation for 1 hr. Viral RNA was then determined with q-RT-PCR. Values are normalized to vehicle treated cells. ***, P<0.001. (C) Diagram of EV71 subgenomic replicon. Part of the structural genes was replaced with a Renilla luciferase reporter gene. (D) RD cells transfected with EV71 SGR RNA were treated with 1.5 μM LL-18 or FF-18 for 3 hrs (left panel) or 6 hrs (right panel) before luciferase activity was measured. ns, not significant. […]
Full-length NanoLuc-EV71 reporter viruses and subgenomic EV71 replicon (SGR) were described previously. […] Nano luciferase and Renilla luciferase were measured with Nano-Glo or Renilla luciferase assay system from Promega (Madison, WI). Luminescence signals were measured using a BioTek Neo2 microplate reader.

FRKSKEKIGKLFKRIVQRILDFLRNLV [LL-18]
inhibition of Echo7 infection (Echovirus 7 (Echo7)): neither LL-18 nor FF-18 could inhibit CVB5 or Echo 7 infection
inhibition of Echo7 infection, higher concentrations (Echovirus 7 (Echo7)): could still not inhibit CVB5 or Echo 7 infection
protection when cells are pre-incubated with peptide and unbound peptide washed out (EV71 virus [1]): EV71 could still infect these treated cells and cause cell death
inhibition of EV71 attachment (EV71 virus [2]): could effectively inhibit EV71 attachment
inhibition of EV71 SGR luciferase (viral translation or replication) (EV71 subgenomic replicon): no inhibition

FRKSKEKIGKFFKRIVQRIFDFLRNLV [FF-18]
inhibition of Echo7 infection (Echovirus 7 (Echo7)): neither LL-18 nor FF-18 could inhibit CVB5 or Echo 7 infection
inhibition of Echo7 infection, higher concentrations (Echovirus 7 (Echo7)): could still not inhibit CVB5 or Echo 7 infection
protection when cells are pre-incubated with peptide and unbound peptide washed out (EV71 virus [1]): EV71 could still infect these treated cells and cause cell death
inhibition of EV71 attachment (EV71 virus [2]): could effectively inhibit EV71 attachment
inhibition of EV71 SGR luciferase (viral translation or replication) (EV71 subgenomic replicon): no inhibition
